Legend:
[1] = tested on: MCF-7 (breast cancer cell line); experiment: Viability assay (CellTiter-Blue), MCF-7; format: cell-based; settings: Homo sapiens, MCF7
[2] = In vitro redox-cycling ability, phenol red/horseradish peroxidase assay; format: biochemical; settings: HRP/phenol-red reporter assay, absorbance at 610 nm; up to 25 μM
Method: In vitro redox cycling capability of compounds was assessed by phenol red/horseradish peroxidase (HRP) assay by adaption of a previously described protocol (Assay Drug Dev. Technol., 2008, 6, 505-518). Briefly, stocks were prepared as follows: (1) DTT to a concentration of 2.4 μM in PBS pH 7.4 buffer; (2) compound stocks in PBS pH 7.4 buffer to 3× the desired concentration by 1000× dilution of DMSO stocks; (3) a stock of phenol-red-HRP detection reagent containing 300 μg/mL phenol red and 180 μg/mL HRP enzyme in PBS pH 7.4 buffer; (4) a stock of 1 M NaOH in water; (5) a stock of 100 μM H2O2 in PBS prepared by addition of a 30% solution of H2O2 in water into 1000 μL of PBS. Into each well of a 96 well clear flat-bottomed plate was then added 40 μL of compound stock in PBS followed by 40 μL of DTT stock, followed immediately by 40 μL of phenol-red-HRP reagent. A positive control with 100 μM H2O2 added in place of compound was included. The plate was incubated in the dark at room temperature for 15 min. Following this 20 μL of 1 M NaOH was added to each well to terminate the reaction. Absorbance was immediately measured at 610 nm (MiniMax i3x Imager, Molecular Devices). Absorbance of treated wells was normalised to control wells treated with PBS only (zero redox cycling). All readings were performed in triplicate and error bars display standard error of the mean.

[3] = tested on: HCT-116 (colon cancer cell line); experiment: Viability assay (CellTiter-Blue), HCT-116; format: cell-based; settings: Homo sapiens
Method: (§1) Assays assessing cytotoxicity of β-lapachone and derivatives were performed by CellTiter-Blue assay (Promega) according to the manufacturer's instructions. Briefly, adherent cancer-cell lines were plated at 20,000 cells/well in 96 well plates or suspension cell lines were plated at a concentration of 2×10^5 cells/mL in 24 well plates. Compound stocks in media were made by dilution of DMSO stocks containing the compound of interest to obtain a final in-plate DMSO concentration of only 0.1%. Incubation was performed for 48 h. Following incubation, media was replaced with media containing CellTiter-Blue (Promega) in 1:10 dilution and the plates were incubated for 1.5-4 h. The fluorescence of the plates was recorded (excitation 555 nm, emission 585 nm, […] Reader, Molecular Devices). Cell viability was calculated by division of the fluorescence intensity of treated wells by that of the calculated average fluorescence intensity of replicate negative control wells containing cells with 0.1% DMSO only. Values and reported error bars represent the mean and standard error of the mean of three triplicate repeats for each concentration tested.

HL-60 = experiment: Toxicity with/without β-glucuronidase, HL-60; format: cell-based; settings: Homo sapiens, HL-60; read-out: IC50 β-lapachone, 1
Method: (§2) Assays assessing cytotoxicity of β-lapachone and derivatives were performed by CellTiter-Blue assay (Promega) according to the manufacturer's instructions. Briefly, adherent cancer-cell lines were plated at 20,000 cells/well in 96 well plates or suspension cell lines were plated at a concentration of 2×10^5 cells/mL in 24 well plates. Compound stocks in media were made by dilution of DMSO stocks containing the compound of interest to obtain a final in-plate DMSO concentration of only 0.1%. Incubation was performed for 48 h. Following incubation, media was replaced with media containing CellTiter-Blue (Promega) in 1:10 dilution and the plates were incubated for 1.5-4 h. The fluorescence of the plates was recorded (excitation 555 nm, emission 585 nm, MiniMax i3x Reader, Molecular Devices).
(§3) Cell viability was calculated by division of the fluorescence intensity of treated wells by that of the calculated average fluorescence intensity of replicate negative control wells containing cells with 0.1% DMSO only. Values and reported error bars represent the mean and standard error of the mean of three triplicate repeats for each concentration tested. IC50 values were calculated using GraphPad Prism 8 software.
(§4) The potential of compound 37a, glucuronide-PHB-BL, as a prodrug was investigated. As discussed above, at physiological pH the compound has a relatively slow-release rate. Toxicity of Gluc-PHB-BL 37a was tested against a range of cell lines with and without added β-glucuronidase. Addition of the enzyme mimics conditions of the solid tumour environment.

MOLM-13 = experiment: Viability assay with small molecule prodrugs, Trypan Blue exclusion, MOLM-13; format: cell-based; settings: 5 μM, 24 h timepoint
Method: For assays assessing cytotoxicity of β-lapachone versus small molecule dipeptide prodrugs, suspension cells were plated into 24 well plates at a density of 2.5×10^5 cells/mL in 240 μL. Serial dilutions of compound were made up in PBS. 60 μL of each stock of either PBS, or compound in PBS was added to the cells to achieve the desired final concentration. After the specified incubation time, toxicity was assessed by counting of live cells using the Trypan Blue exclusion method with a Countess II Automated Cell Counter (ThermoFisher Scientific) according to the manufacturer's instructions. Cell viability was determined by division of average live cell number of treated wells by average live cell number for control wells treated with PBS only. Values recorded are the mean of three repeat wells, with error bars representing the standard error of the mean for each concentration tested. IC50 values were calculated using GraphPad Prism software.

[4] = tested on: range of cancer cell lines, including leukaemia, breast, colon, and cervical cancer; experiment: Toxicity to a range of cancer cell lines (panel); format: cell-based; settings: panel of cells
Method: as §1

[5] = tested on: Aspc-1 pancreatic cancer cell line; experiment: CellTiter Glo viability assay, Aspc-1; format: cell-based; settings: Homo sapiens, ASPC1; Aspc-1, β-lapachone alone, 48 hours; read-out: IC50
Method: For CellTiter Glo viability assays, 10,000 cells per well were plated on Day 1 and were allowed to adhere to the plate surface for 24 hours. Optimized concentration ranges of prodrugs were determined and made via serial dilution. […] Cells were incubated with compound for 48 hours and viability was assessed on Day 4 using the CellTiter Glo Viability assay which measures metabolically active cells by quantifying the amount of ATP present.
Panc-1 cells were obtained from Tony Kouzarides' lab in the Gurdon Institute at the University of Cambridge and put into culture at passage 10 containing DMEM media (Gibco) supplemented with 1% Pen-Strep antibiotic (Gibco), 1% L-glutamine, and 10% fetal bovine serum (FBS, sterile-filtered). Aspc-1 cells were bought commercially from the American Type Culture Collection (ATCC) and put into culture containing RPMI 1640 media (Gibco) supplemented with 1% Pen-Strep antibiotic (Gibco), 1% L-glutamine, and 20% fetal bovine serum (FBS, sterile-filtered). All cell lines were started at passage 10 and passaged every 3 days by centrifuging at 1000 rpm for 4 minutes.

[6] = tested on: HeLa (cervical cancer cell line); experiment: Viability assay (CellTiter-Blue), HeLa; format: cell-based; settings: Homo sapiens
Method: as §1

range of cell lines = experiment: Toxicity of Gluc-PHB-BL against a range of cell lines with and without added β-glucuronidase; format: cell-based; settings: control tests
Method: as §2, §3, §4

- IC50 [1]: 1.9 µM
- IC50 [3]: 1.1 µM
- IC50 [5]: 7.66 µM
- IC50 [6]: 4.2 µM
Compound: CC1(C)CCC2=C(O1)c1ccccc1C(=O)C2=O [Compound 1, β-lapachone, reference compound]
- redox activity (in vitro redox-cycling capability) [2]: saturates the assay above 10 μM concentration
- IC50 (HL-60): 4.33 µM
- toxicity to MOLM-13 (MOLM-13): complete cell death
- IC50 [4]: 1.1 to 4.2 µM
- effect of β-glucuronidase addition on toxicity (range of cell lines): not significantly affected
